What was measured:
[1] = Chemical reactivity of compound to NAC in PBS at pH 7.4 by UV spectrometric assay; assay type: physicochemical; details: buffer
[2] = target: T1, CYP3A4 (Homo sapiens, UniProt P08684); test: Inhibition of CYP3A4 (unknown origin) assessed as remaining activity at 50 uM incubated for 15 mins (reference value: 85 +/- 3.4%); assay type: ADME; details: read-out: Activity
[3] = target: T2, Cytochrome P450 3A4 (Homo sapiens, UniProt P08684); test: Inhibition of wild type CYP3A4 (unknown origin) expressed in CHO cells using midazolam as substrate incubated for 6 hrs by LC-MS/MS analysis; assay type: ADME, cell-based
[4] = target: T3, CYP2B6 (Homo sapiens, UniProt P20813); test: Inhibition of human CYP2B6 assessed as remaining activity at 50 uM using bupropion.HCl as substrate preincubated for 3 mins followed by substrate addition and measured upto 15 mins by LC-MS/MS analysis; assay type: ADME; details: buffer, probe bupropion.HCl, time < 18 min, read-out: Activity
T3 sequence (P20813 whole entry): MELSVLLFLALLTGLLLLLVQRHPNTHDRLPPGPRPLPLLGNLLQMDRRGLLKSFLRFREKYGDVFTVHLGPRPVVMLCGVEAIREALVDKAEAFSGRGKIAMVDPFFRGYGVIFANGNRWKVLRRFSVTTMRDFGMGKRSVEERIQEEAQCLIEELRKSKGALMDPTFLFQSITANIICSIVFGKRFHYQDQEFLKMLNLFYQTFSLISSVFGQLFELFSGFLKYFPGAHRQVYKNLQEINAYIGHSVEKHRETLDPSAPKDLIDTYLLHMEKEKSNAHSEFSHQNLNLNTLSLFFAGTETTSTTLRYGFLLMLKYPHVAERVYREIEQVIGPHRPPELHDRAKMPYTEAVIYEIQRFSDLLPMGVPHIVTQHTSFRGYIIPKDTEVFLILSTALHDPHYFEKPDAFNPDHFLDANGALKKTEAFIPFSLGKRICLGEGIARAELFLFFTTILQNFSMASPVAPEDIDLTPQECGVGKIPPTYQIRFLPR

[5] = target: T1, CYP3A4; test: Inhibition of CYP3A4 (unknown origin) assessed as remaining activity at 50 uM measured 15 mins after dialysis (reference value: 53.8 +/- 2.9 %); assay type: ADME; details: read-out: Activity
[6] = target: T1, CYP3A4; test: Inhibition of CYP3A4 (unknown origin) assessed as remaining activity at 50 uM measured 15 mins before dialysis (reference value: 87.2 +/- 2.3 %); assay type: ADME; details: read-out: Activity
[7] = target: T1, CYP3A4; test: Inhibition of human CYP3A4 assessed as remaining activity at 50 uM using testosterone as substrate preincubated for 3 mins followed by substrate addition and measured upto 15 mins by LC-MS/MS analysis (reference value: 85.4 +/- 3.42 %); assay type: ADME; details: probe testosterone, time < 18 min, read-out: Activity
[8] = Chemical reactivity of compound to NAL in PBS at pH 7.4 by UV spectrometric assay; assay type: physicochemical; details: buffer
[9] = target: T2, Cytochrome P450 3A4; test: Inhibition of CYP3A4 (unknown origin) incubated for 5 to 15 mins by LC-MS/MS analysis; assay type: ADME; details: at 10 to 50 µM, dose lower 10 µM, time lower 5 min, dose upper 50 µM, time upper 15 min
[10] = target: CYP2C9 (Homo sapiens, UniProt P11712); test: Inhibition of human CYP2C9 assessed as remaining activity at 50 uM using diclofenac sodium as substrate preincubated for 3 mins followed by substrate addition and measured upto 15 mins by LC-MS/MS analysis; assay type: ADME; details: probe diclofenac sodium, time < 18 min, read-out: Activity
[11] = target: T4, CYP1A2 (Homo sapiens, UniProt P05177); test: Inhibition of human CYP1A2 assessed as remaining activity at 50 uM using phenacetin as substrate preincubated for 3 mins followed by substrate addition and measured upto 15 mins by LC-MS/MS analysis (reference value: 85.4 +/- 3.42 %); assay type: ADME; details: probe phenacetin, time < 18 min, read-out: Activity
T4 sequence (P05177 whole entry): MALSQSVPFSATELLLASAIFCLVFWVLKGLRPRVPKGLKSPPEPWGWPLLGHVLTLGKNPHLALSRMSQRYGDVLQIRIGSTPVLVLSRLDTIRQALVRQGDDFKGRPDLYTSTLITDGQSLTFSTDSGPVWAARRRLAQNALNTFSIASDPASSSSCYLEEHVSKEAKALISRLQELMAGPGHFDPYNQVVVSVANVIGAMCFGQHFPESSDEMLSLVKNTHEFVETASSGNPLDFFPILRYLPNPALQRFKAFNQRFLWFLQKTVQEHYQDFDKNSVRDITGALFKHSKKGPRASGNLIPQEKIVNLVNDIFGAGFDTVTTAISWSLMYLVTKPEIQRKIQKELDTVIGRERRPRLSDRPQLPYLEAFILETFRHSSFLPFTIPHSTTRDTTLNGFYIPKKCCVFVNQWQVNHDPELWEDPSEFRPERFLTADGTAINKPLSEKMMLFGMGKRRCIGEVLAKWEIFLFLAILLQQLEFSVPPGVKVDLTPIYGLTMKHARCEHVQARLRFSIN

[12] = target: CYP2C19 (Homo sapiens, UniProt P33261); test: Inhibition of human CYP2C19 assessed as remaining activity at 50 uM using omeprazole as substrate preincubated for 3 mins followed by substrate addition and measured upto 15 mins by LC-MS/MS analysis; assay type: ADME; details: probe omeprazole, time < 18 min, read-out: Activity
[13] = target: CYP2D6 (Homo sapiens, UniProt P10635); test: Inhibition of human CYP2D6 assessed as remaining activity at 50 uM using dextromethorphan as substrate preincubated for 3 mins followed by substrate addition and measured upto 15 mins by LC-MS/MS analysis; assay type: ADME; details: probe dextromethorphan, time < 18 min, read-out: Activity
[14] = target: T2, Cytochrome P450 3A4; test: Inhibition of CYP3A4 (unknown origin) at 50 uM preincubated for 3 mins followed by NADPH addition and measured after 5 to 15 mins by LC-MS/MS analysis; assay type: ADME; details: time 8-18 min
[15] = target: T2, Cytochrome P450 3A4; test: Inhibition of CYP3A4 (unknown origin) at 10 to 50 uM by LC-MS/MS analysis; assay type: ADME; details: TDE = time-dependent effect, dose lower 10 µM, time lower 5 min, dose upper 50 µM, time upper 15 min
[16] = target: T1, CYP3A4; test: Inhibition of CYP3A4 (unknown origin) at 50 uM incubated for 15 mins by LC-MS/MS analysis; assay type: ADME
[17] = target: T1, CYP3A4; test: Inhibition of CYP3A4 (unknown origin) assessed as remaining activity at 50 uM measured immediately (reference value: 100 %); assay type: ADME; details: read-out: Activity
[18] = target: T1, CYP3A4; test: Inhibition of CYP3A4 (unknown origin) assessed as remaining activity at 50 uM incubated for 15 mins in presence of 2 mM NAC; assay type: ADME; details: read-out: Activity
[19] = Chemical reactivity of compound to serine in PBS at pH 7.4 by UV spectrometric assay; assay type: physicochemical; details: buffer
[20] = target: T5, CYP2A6 (Homo sapiens, UniProt P11509); test: Inhibition of human CYP2A6 assessed as remaining activity at 50 uM using coumarin as substrate preincubated for 3 mins followed by substrate addition and measured upto 15 mins by LC-MS/MS analysis; assay type: ADME; details: probe coumarin, time < 18 min, read-out: Activity
T5 sequence (P11509 whole entry): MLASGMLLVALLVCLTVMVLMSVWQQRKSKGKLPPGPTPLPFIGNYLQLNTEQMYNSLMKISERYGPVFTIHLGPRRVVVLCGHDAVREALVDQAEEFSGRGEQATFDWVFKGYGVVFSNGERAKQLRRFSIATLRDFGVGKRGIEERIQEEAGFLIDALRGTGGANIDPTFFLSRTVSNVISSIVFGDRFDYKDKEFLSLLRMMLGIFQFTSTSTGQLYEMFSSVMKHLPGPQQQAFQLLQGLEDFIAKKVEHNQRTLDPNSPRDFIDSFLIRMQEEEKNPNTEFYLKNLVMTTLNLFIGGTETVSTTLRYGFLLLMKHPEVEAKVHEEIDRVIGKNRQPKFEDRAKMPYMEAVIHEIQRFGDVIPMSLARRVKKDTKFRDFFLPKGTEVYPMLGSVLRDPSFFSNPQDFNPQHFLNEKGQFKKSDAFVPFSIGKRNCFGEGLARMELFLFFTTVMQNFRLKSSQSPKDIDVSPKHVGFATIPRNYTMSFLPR

[21] = target: CYP3A5 (Homo sapiens, UniProt P20815); test: Inhibition of human CYP3A5 assessed as remaining activity at 50 uM using testosterone as substrate preincubated for 3 mins followed by substrate addition and measured upto 15 mins by LC-MS/MS analysis; assay type: ADME; details: probe testosterone, time < 18 min, read-out: Activity
[22] = target: T2, Cytochrome P450 3A4; test: Inhibition of CYP3A4 (unknown origin) at 50 uM incubated for 5 to 15 mins in absence of NADPH by LC-MS/MS analysis; assay type: ADME; details: time 5-15 min
[23] = target: Cytochrome P450 3A4 (Homo sapiens, UniProt P08684, C239S); test: Inhibition of CYP3A4 C239S mutant (unknown origin) expressed in CHO cells using midazolam as substrate incubated for 6 hrs by LC-MS/MS analysis; assay type: ADME, cell-based
[24] = target: T1, CYP3A4; test: Inhibition of CYP3A4 (unknown origin) assessed as residual activity at 50 uM incubated for 5 to 15 mins in presence of ketoconazole; assay type: ADME; details: with ketoconazole, time 5-15 min, read-out: Activity
[25] = target: T1, CYP3A4; test: Inhibition of CYP3A4 (unknown origin) assessed as remaining activity at 50 uM incubated for 15 mins in presence of 20 mM NAC; assay type: ADME; details: read-out: Activity
[26] = target: CYP2E1 (Homo sapiens, UniProt P05181); test: Inhibition of human CYP2E1 assessed as remaining activity at 50 uM using 4-nitrophenol as substrate preincubated for 3 mins followed by substrate addition and measured upto 15 mins by LC-MS/MS analysis; assay type: ADME; details: probe 4-nitrophenol, time < 18 min, read-out: Activity
[27] = target: T2, Cytochrome P450 3A4; test: Time dependent inhibition of CYP3A4 (unknown origin) at 50 uM measured after 5 to 15 mins in presence of NADPH; assay type: ADME; details: time 5-15 min
[28] = target: T2, Cytochrome P450 3A4; test: Time dependent inhibition of CYP3A4 (unknown origin) at 50 uM measured after 5 to 15 mins; assay type: ADME; details: time 5-15 min

T2 sequence (P08684 whole entry): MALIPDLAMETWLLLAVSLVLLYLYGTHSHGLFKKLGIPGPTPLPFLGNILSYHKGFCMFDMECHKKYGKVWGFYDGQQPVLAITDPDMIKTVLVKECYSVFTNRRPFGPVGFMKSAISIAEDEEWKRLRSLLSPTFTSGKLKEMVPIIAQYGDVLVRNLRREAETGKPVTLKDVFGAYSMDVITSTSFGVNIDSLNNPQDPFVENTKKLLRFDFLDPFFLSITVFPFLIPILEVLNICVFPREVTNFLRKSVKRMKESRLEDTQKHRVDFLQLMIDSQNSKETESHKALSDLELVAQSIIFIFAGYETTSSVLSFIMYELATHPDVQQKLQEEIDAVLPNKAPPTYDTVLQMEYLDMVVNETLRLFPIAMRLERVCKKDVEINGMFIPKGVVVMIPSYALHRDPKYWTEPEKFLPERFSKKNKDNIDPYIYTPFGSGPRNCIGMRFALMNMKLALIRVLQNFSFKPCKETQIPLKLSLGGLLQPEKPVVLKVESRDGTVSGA
T1 sequence (P08684 whole entry): as above
CYP2C9, sequence (P11712 whole entry): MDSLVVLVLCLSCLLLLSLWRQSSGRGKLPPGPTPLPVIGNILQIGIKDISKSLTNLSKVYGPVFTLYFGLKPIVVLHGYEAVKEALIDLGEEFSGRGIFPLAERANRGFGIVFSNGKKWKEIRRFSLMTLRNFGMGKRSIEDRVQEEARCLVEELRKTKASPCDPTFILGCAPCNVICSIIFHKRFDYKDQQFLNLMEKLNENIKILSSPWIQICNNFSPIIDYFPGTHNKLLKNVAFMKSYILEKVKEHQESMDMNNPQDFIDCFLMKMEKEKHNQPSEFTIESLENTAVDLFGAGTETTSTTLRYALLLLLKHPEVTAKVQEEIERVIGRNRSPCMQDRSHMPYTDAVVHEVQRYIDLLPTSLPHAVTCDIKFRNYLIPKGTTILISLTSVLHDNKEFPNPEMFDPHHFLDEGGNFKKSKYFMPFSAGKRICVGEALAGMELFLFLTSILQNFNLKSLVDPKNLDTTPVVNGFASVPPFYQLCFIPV
CYP2E1, sequence (P05181 whole entry): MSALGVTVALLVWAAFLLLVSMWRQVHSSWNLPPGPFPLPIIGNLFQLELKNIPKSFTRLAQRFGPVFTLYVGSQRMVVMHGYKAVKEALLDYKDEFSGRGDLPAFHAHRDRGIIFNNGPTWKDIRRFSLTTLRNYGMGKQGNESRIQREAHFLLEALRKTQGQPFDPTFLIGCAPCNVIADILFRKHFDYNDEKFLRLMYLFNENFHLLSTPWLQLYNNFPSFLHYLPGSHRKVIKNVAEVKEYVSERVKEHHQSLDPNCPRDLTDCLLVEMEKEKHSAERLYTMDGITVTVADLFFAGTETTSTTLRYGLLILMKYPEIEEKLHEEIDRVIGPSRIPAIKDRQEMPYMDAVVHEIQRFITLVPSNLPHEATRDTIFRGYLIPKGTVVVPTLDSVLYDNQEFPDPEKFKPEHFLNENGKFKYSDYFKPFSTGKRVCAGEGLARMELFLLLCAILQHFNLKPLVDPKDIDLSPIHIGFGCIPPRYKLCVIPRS
CYP2C19, sequence (P33261 whole entry): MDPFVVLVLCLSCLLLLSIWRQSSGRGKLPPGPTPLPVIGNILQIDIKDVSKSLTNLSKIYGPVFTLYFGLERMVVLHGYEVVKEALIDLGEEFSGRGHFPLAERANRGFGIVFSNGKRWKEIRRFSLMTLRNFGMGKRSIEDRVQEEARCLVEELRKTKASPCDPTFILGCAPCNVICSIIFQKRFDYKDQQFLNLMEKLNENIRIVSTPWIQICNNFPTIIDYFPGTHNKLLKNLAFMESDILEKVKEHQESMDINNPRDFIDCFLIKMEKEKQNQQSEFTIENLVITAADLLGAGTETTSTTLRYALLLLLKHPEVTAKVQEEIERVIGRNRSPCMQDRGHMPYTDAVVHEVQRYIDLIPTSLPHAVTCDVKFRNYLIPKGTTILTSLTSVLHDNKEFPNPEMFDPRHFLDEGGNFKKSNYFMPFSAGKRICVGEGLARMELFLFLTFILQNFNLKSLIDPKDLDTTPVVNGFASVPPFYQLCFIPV
Cytochrome P450 3A4 (Homo sapiens, UniProt P08684, C239S), sequence (P08684 2-503 C239S limits assumed): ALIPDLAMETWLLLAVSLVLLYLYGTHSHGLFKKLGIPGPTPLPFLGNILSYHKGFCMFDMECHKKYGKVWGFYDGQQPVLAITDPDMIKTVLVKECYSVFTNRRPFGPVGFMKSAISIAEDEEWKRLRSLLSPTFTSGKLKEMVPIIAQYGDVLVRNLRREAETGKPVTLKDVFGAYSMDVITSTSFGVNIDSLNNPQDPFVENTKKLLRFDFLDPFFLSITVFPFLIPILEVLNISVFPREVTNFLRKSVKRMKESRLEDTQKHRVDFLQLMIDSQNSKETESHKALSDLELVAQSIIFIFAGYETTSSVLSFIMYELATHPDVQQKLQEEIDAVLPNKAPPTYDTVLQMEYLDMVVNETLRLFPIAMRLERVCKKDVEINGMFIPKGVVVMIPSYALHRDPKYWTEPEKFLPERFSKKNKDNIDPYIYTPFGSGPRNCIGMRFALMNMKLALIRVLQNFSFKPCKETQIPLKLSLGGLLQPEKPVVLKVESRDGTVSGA
CYP3A5, sequence (P20815 whole entry): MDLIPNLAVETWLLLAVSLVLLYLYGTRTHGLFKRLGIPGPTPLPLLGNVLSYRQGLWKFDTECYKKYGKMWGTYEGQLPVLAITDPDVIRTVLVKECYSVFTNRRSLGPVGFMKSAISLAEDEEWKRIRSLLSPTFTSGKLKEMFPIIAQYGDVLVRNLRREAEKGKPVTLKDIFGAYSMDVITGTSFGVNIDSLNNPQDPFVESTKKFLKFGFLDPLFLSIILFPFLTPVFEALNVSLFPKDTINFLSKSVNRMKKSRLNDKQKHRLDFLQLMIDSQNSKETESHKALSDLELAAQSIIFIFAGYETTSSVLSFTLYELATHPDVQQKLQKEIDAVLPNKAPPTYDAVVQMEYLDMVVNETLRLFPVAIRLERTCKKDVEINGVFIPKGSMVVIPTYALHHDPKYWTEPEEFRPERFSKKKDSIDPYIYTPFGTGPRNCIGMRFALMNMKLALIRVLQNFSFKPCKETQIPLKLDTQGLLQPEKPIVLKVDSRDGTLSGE
CYP2D6, sequence (P10635 whole entry): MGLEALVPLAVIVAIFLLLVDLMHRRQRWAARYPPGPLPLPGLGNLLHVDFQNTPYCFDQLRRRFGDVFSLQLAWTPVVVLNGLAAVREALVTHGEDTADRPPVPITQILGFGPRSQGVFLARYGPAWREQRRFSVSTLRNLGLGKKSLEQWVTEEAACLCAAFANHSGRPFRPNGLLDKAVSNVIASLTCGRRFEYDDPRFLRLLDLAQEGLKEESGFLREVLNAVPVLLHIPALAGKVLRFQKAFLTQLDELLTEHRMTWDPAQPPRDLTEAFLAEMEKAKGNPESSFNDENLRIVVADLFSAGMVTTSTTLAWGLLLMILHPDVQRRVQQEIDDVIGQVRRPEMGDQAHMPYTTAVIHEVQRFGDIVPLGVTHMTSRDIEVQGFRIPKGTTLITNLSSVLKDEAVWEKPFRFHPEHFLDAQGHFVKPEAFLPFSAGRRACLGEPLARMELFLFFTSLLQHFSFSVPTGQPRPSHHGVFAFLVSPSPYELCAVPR

For `COc1ccc2c(c[n+](C)c3c4cc5c(cc4ccc23)OCO5)c1OC.[Cl-]` [CHELERYTHRINE CHLORIDE], the Drug metabolism [1] was “Metabolite_Detected”, the activity at 0.25 h, 50 µM [2] was 26% and the “inhibition (INH)” value [3] was “Active”. For the same compound, the activity at 0.25 h, 50 µM [4] was over 50%, the activity at 0.25 h, 50 µM [5] was 25.1% and the activity at 0.25 h, 50 µM [6] was 43.8%. For the same compound, the activity at 0.25 h, 50 µM [7] was 26.3%, the Drug metabolism [8] was “Metabolite_Notdetected” and the “inhibition (INH)” value [9] was “Dose-Dependent Effect”. The activity at 0.25 h, 50 µM [10] was over 50%, the activity at 0.25 h, 50 µM [11] was over 50% and the activity at 0.25 h, 50 µM [12] was over 50%. For the same compound, the activity at 0.25 h, 50 µM [13] was over 50%, the “inhibition (INH)” value [14] was “Active” and the “inhibition (INH)” value [15] was “Tde”. It also gave an inhibition at 0.25 h, 50 µM [16] of 75%, an activity at 0 min, 50 µM [17] of 70.7% and an activity at 0.25 h, 50 µM [18] of 49.9%. For the same compound, the Drug metabolism [19] was “Metabolite_Notdetected”, the activity at 0.25 h, 50 µM [20] was over 50% and the activity at 0.25 h, 50 µM [21] was over 50%. For the same compound, the “inhibition (INH)” value [22] was “Active”, the “inhibition (INH)” value [23] was “Not Active” and the activity at 50 µM [24] was 50%. It also gave an activity at 0.25 h, 50 µM [25] of 85.9% and an activity at 0.25 h, 50 µM [26] of over 50%.
For `COc1cc2c[n+](C)c3c4cc5c(cc4ccc3c2cc1OC)OCO5.[Cl-]` [NITIDINE CHLORIDE], the Drug metabolism [1] was “Metabolite_Notdetected”, the TDI [27] was “Active” and the Drug metabolism [8] was “Metabolite_Notdetected”. The Drug metabolism [19] was “Metabolite_Notdetected”.
For `COc1ccc2c(c1OC)CN(C)c1c-2ccc2cc3c(cc12)OCO3` [DIHYDROCHELERYTHRINE], the TDI [28] was “Not Active”.

Reference: ChEMBL document CHEMBL5528051, “Chelerythrine Chloride is an Affinity-Labeling Inactivator of CYP3A4 by Modification of Cysteine239” (J Med Chem, 2024)
